Reference: PubChem BioAssay AID602421 (The Scripps Research Institute Molecular Screening Center, 2012)
“And” between values parts separate entries of the source, which are not always exact repeats. Identical values can stand only once. The source made the active and inactive calls. No rule for the calls is given here.

Each compound was assayed against AddAB helicase-nuclease (Helicobacter pylori 26695) (assay: AddAB nuclease inhibitors, potency, late-stage follow-up, biochemical, radioactivity, purified enzyme, IC50 (AID 602421)). Details: radioactive DNA degradation.

| IC50 | Structure (SMILES) |
| --- | --- |
| > 100 µM (inactive) | O=C(OCC(=O)c1cccs1)c1ccc([N+](=O)[O-])o1 |
| 96 µM | N#Cc1c(NC(=O)c2ccc([N+](=O)[O-])o2)sc2c1CCC2 |
| > 100 µM (inactive) | N#Cc1c(NC(=O)c2ccc(-c3ccccc3[N+](=O)[O-])o2)sc2c1CCCC2 |
| > 100 µM (inactive) | O=C(NCc1cccnc1)c1ccc([N+](=O)[O-])o1 |
| > 100 µM (inactive) | O=C(Nc1ncccn1)c1ccc([N+](=O)[O-])o1 |
| > 100 µM (inactive) | O=C(Nc1ccc(N2CCOCC2)cc1)c1ccc([N+](=O)[O-])o1 |
| > 100 µM (inactive) | O=C(Nc1cccc(NC(=O)c2ccccc2Cl)c1)c1ccc([N+](=O)[O-])o1 |
| > 100 µM (inactive) | NC(=O)c1ccsc1NC(=O)COC(=O)c1ccc([N+](=O)[O-])o1 |
| > 100 µM (inactive) | N#Cc1c(NC(=O)c2ccc([N+](=O)[O-])o2)sc2c1CCCC2 |
| > 166 µM (inactive) | Cc1cccnc1NC(=O)c1ccc([N+](=O)[O-])o1 |

Continued, compound first:

| Structure (SMILES) | IC50 |
| --- | --- |
| CCn1cc(C(=O)O)c(=O)c2cc(F)c(N3CCN(C(=S)Nc4cccc(C(F)(F)F)c4)CC3)cc21 | 11 µM |
| N#Cc1c(NC(=O)c2cnccn2)sc2c1CCCC2 | 17 µM |
| N#Cc1c(NC(=O)c2cccc(F)c2)sc2c1CCCC2 | > 100 µM (inactive) |
| Cc1sc(NC(=O)c2ccc(Br)o2)c(C#N)c1C | 25 µM |
| Cc1ccc(C(=O)Nc2sc3c(c2C#N)CCCCC3)o1 | > 100 µM (inactive) |
| Cc1ccc2nc(/C(C#N)=C\c3ccc([N+](=O)[O-])o3)[nH]c2c1 | > 166 µM (inactive) |
| CCn1cc(C(=O)O)c(=O)c2cnc(N3CCN(C(=S)Nc4ccccc4C(F)(F)F)CC3)nc21 | 34 µM and > 100 µM (inactive) |
| CCn1cc(C(=O)O)c(=O)c2cc(F)c(N3CCN(C(=S)Nc4ccccc4C(F)(F)F)CC3)cc21 | 79 µM |
| C=CCn1c(Sc2ncc([N+](=O)[O-])s2)n[nH]c1=O | 93 µM |
| CCn1cc(C(=O)O)c(=O)c2cnc(N3CCN(C(=S)NCc4ccccc4)CC3)nc21 | inactive |
| N#Cc1c(NC(=O)c2ccccc2C(=O)O)sc2c1CCCC2 | > 100 µM (inactive) |
| N#Cc1c(NC(=O)c2ccco2)sc2c1CCC2 | 36 µM |
| COC(=O)c1c(-c2ccccc2)csc1NC(=O)c1cnccn1 | 11 µM |
| CNC(=O)c1c(NC(=O)c2nc(SCc3ccccc3)ncc2Cl)sc2c1CCCC2 | 55 µM |
| CCn1cc(C(=O)O)c(=O)c2cnc(N3CCN(C(=S)NC(=O)c4cccc(C)c4)CC3)nc21 | inactive |
| CC1(C)Cc2c(sc(NC(=O)c3ccco3)c2C#N)CO1 | > 100 µM (inactive) |
| CCn1cc(C(=O)O)c(=O)c2cnc(N3CCN(C(=S)Nc4cccc(C(F)(F)F)c4)CC3)nc21 | 27 µM |
| N#Cc1c(NC(=O)c2ccccc2)sc2c1CCC2 | > 100 µM (inactive) |
